These are literature values, as cited in paper PMC4460250, “Systems Pharmacology Dissecting Holistic Medicine for Treatment of Complex Diseases: An Example Using Cardiocerebrovascular Diseases Treated by TCM” (Evidence-based Complementary and Alternative Medicine : eCAM, 2015).

The conditions of the data set: in vivo; cited from earlier work.
Consider `CNCCCC12CCC(c3ccccc31)c1ccccc12` [Maprotiline], for which the “HIA(Human Intestinal Absorption)” value is recorded as 0.98. In the case of `O=C1OC2(c3ccc(O)cc3Oc3cc(O)ccc32)c2ccccc21` [Fluorescein], the “HIA(Human Intestinal Absorption)” value was 0.99. As for `CCc1cc(C(N)=S)ccn1` [Ethionamide], the “HIA(Human Intestinal Absorption)” value is given as 0.9.

On to `Cc1ccc(O)c([C@H](CCN(C(C)C)C(C)C)c2ccccc2)c1` [Tolterodine], for which the “HIA(Human Intestinal Absorption)” value was 0.77.

As for `NC(=O)N1c2ccccc2C=Cc2ccccc21` [Carbamazepine], the “HIA(Human Intestinal Absorption)” value is listed as 1. In the case of `CC(=O)c1ccc(S(=O)(=O)NC(=O)NC2CCCCC2)cc1` [Acetohexamide], the “HIA(Human Intestinal Absorption)” value is on record as 0.8. As to `CSc1ccc(C(=O)c2[nH]c(=O)[nH]c2C)cc1` [Enoximone], the “HIA(Human Intestinal Absorption)” value is 0.8. In the case of `CC(=O)S[C@@H]1CC2=CC(=O)CC[C@]2(C)[C@H]2CC[C@@]3(C)[C@@H](CC[C@@]34CCC(=O)O4)[C@H]12` [Spironolactone], the “HIA(Human Intestinal Absorption)” value is 0.73. Take `COC(=O)Nc1nc2ccc(C(=O)c3ccccc3)cc2[nH]1` [Mebendazole]: the “HIA(Human Intestinal Absorption)” value is given as 1. With `O=C(O)c1cc(/N=N/c2ccc(S(=O)(=O)Nc3ccccn3)cc2)ccc1O` [Sulfasalazine], the “HIA(Human Intestinal Absorption)” value was 0.62. Regarding `Clc1ccccc1CN1CCc2sccc2C1` [Ticlopidine], the “HIA(Human Intestinal Absorption)” value was 0.8.

As for `COc1nc(C)nc(Cl)c1N=C1NCCN1` [Moxonidine], the “HIA(Human Intestinal Absorption)” value is reported as 0.88.

Consider `CC[C@@H](CO)NC(=O)[C@@H]1C=C2c3cccc4[nH]cc(c34)C[C@H]2N(C)C1` [Methylergonovine], for which the “HIA(Human Intestinal Absorption)” value is given as 1. Turning to `COc1cc(N)c(Cl)cc1C(=O)NC1CCN(CCCOc2ccc(F)cc2)CC1OC` (centres unmarked) [Cisapride], the “HIA(Human Intestinal Absorption)” value is on record as 1. Turning to `NNc1nncc2ccccc12` [Hydralazine], the “HIA(Human Intestinal Absorption)” value is 1. As for `CCC1(c2ccccc2)C(=O)NC(=O)NC1=O` [Phenobarbital], the “HIA(Human Intestinal Absorption)” value was 1.

Take `CCOC(=O)Nc1ccc2c(c1)N(C(=O)CCN1CCOCC1)c1ccccc1S2` [Moricizine]: the “HIA(Human Intestinal Absorption)” value is 0.88.

With `Cc1cnc(C(=O)O)c[n+]1[O-]` [Acipimox], the “HIA(Human Intestinal Absorption)” value is recorded as 0.95. With `N=C(N)N/N=C/c1c(Cl)cccc1Cl` [Guanabenz], the “HIA(Human Intestinal Absorption)” value is reported as 0.8. In the case of `CN1CCC(=C2c3ccccc3CCc3sccc32)CC1` [Pizotyline], the “HIA(Human Intestinal Absorption)” value is 0.8. With `CCC[C@@H]1C[C@@H](C(=O)N[C@@H]([C@H]2O[C@H](SC)[C@H](O)[C@@H](O)[C@H]2O)[C@@H](C)O)N(C)C1` [Lincomycin], the “HIA(Human Intestinal Absorption)” value was 0.28. For `CC[C@H]1OC(=O)[C@H](C)C(=O)[C@H](C)[C@@H](O[C@@H]2O[C@H](C)C[C@H](N(C)C)[C@H]2O)[C@](C)(OC)C[C@@H](C)C(=O)[C@H](C)[C@H]2N(CCCCn3cnc(-c4cccnc4)c3)C(=O)O[C@]12C` [Telithromycin], the “HIA(Human Intestinal Absorption)” value is reported as 0.9. Take `CO[C@@]1(NC(=O)CSCC#N)C(=O)N2C(C(=O)O)=C(CSc3nnnn3C)CS[C@@H]21` [Cefmetazole]: the “HIA(Human Intestinal Absorption)” value is given as 0.1. As for `O=c1[nH]c(=O)n([C@@H]2O[C@H](CO)[C@@H](O)[C@@H]2O)cc1/C=C/Br` [Sorivudine], the “HIA(Human Intestinal Absorption)” value is given as 0.82.

Take `CN1C2CCCC1CC(NC(=O)c1nn(C)c3ccccc13)C2` (centres unmarked) [Granisetron]: the “HIA(Human Intestinal Absorption)” value is reported as 1.

On to `CNCCCC1c2ccccc2C=Cc2ccccc21` [Protriptyline], for which the “HIA(Human Intestinal Absorption)” value is 0.95. Turning to `Cc1cn([C@H]2C[C@H](N=[N+]=[N-])[C@@H](CO)O2)c(=O)[nH]c1=O` [Zidovudine], the “HIA(Human Intestinal Absorption)” value is recorded as 1. With `CC(C(=O)O)c1ccc(N2Cc3ccccc3C2=O)cc1` (centres unmarked) [Indoprofen], the “HIA(Human Intestinal Absorption)” value was 1. Take `NCC[C@H](O)C(=O)N[C@@H]1C[C@H](N)[C@@H](O[C@H]2O[C@H](CN)CC[C@H]2N)[C@H](O)[C@H]1O[C@H]1O[C@H](CO)[C@@H](O)[C@H](N)[C@H]1O` [Arbekacin]: the “HIA(Human Intestinal Absorption)” value was 0.01. Consider `N#Cc1ccc(C(c2ccc(C#N)cc2)n2cncn2)cc1` [Letrozole], for which the “HIA(Human Intestinal Absorption)” value is listed as 1.

As to `CO/N=C(\C(=O)N[C@@H]1C(=O)N2C(C(=O)O)=CCS[C@H]12)c1csc(N)n1` [Ceftizoxime], the “HIA(Human Intestinal Absorption)” value is 0.72. For the compound `O=C(O)c1cc(/N=N/c2ccc(O)c(C(=O)O)c2)ccc1O` [Olsalazine], the “HIA(Human Intestinal Absorption)” value is 0.24. In the case of `O=P(O)(O)C(Cl)(Cl)P(=O)(O)O` [Clodronate], the “HIA(Human Intestinal Absorption)” value was 0.03. Take `C=CCNc1nc(NCC=C)nc(N2CCN(C(c3ccc(F)cc3)c3ccc(F)cc3)CC2)n1` [Almitrine]: the “HIA(Human Intestinal Absorption)” value is 0.9. Turning to `COc1cc2c(cc1OC)C1CC(=O)C(CC(C)C)CN1CC2` (centres unmarked) [Tetrabenazine], the “HIA(Human Intestinal Absorption)” value is 1. Regarding `CC1(C)NC(=O)N(c2ccc([N+](=O)[O-])c(C(F)(F)F)c2)C1=O` [Nilutamide], the “HIA(Human Intestinal Absorption)” value is 1. `C[N+](C)(CCOc1ccccc1)Cc1ccccc1` [Bephenium]: the “HIA(Human Intestinal Absorption)” value was 0.05.

Regarding `Cn1cc[nH]c1=S` [Methimazole], the “HIA(Human Intestinal Absorption)” value was 0.95. On to `c1ccc([C@H]2CN3CCSC3=N2)cc1` [Levamisole], for which the “HIA(Human Intestinal Absorption)” value is 0.95. In the case of `CN(C)CCOc1ccc(/C(=C(/CCCl)c2ccccc2)c2ccccc2)cc1` [Toremifene], the “HIA(Human Intestinal Absorption)” value is 1. `Cc1cccc(C)c1NC(=O)NCCCNC(C)C` [Recainam]: the “HIA(Human Intestinal Absorption)” value is 0.71.

Consider `C[C@@H]1O[C@@H]1P(=O)(O)O` [Fosfomycin], for which the “HIA(Human Intestinal Absorption)” value was 0.31.

`Fc1ccc([C@@H]2CCNC[C@H]2COc2ccc3c(c2)OCO3)cc1` [Paroxetine]: the “HIA(Human Intestinal Absorption)” value is reported as 1. Regarding `Nc1ccn([C@H]2CC[C@@H](CO)O2)c(=O)n1` [Zalcitabine], the “HIA(Human Intestinal Absorption)” value is listed as 0.85. `Cc1ccc(NC(=O)c2ccc(CN3CCN(C)CC3)cc2)cc1Nc1nccc(-c2cccnc2)n1` [Imatinib]: the “HIA(Human Intestinal Absorption)” value is given as 0.98.

As for `Cc1cc(NC(=O)C2=C(O)c3ccccc3S(=O)(=O)N2C)no1` [Isoxicam], the “HIA(Human Intestinal Absorption)” value is on record as 1.

As to `CC(C)COCC(CN(Cc1ccccc1)c1ccccc1)N1CCCC1` (centres unmarked) [Bepridil], the “HIA(Human Intestinal Absorption)” value is on record as 1. Turning to `O=C(O)c1ccccc1C(=O)Nc1ccc(S(=O)(=O)Nc2nccs2)cc1` [Phthalylsulfathiazole], the “HIA(Human Intestinal Absorption)” value is 0.05. Regarding `[H]/N=C(/N)N[C@H]1[C@H](O)[C@@H](O)[C@H](O[C@@H]2O[C@@H](C)[C@](O)(C=O)[C@H]2O[C@@H]2O[C@@H](CO)[C@H](O)[C@@H](O)[C@@H]2NC)[C@@H](N/C(N)=N\[H])[C@@H]1O` [Streptomycin], the “HIA(Human Intestinal Absorption)” value was 0.01.

`CN1C(C(=O)Nc2ccccn2)=C(O)c2sccc2S1(=O)=O` [Tenoxicam]: the “HIA(Human Intestinal Absorption)” value was 1. Regarding `Nc1cc(-c2ccncc2)c[nH]c1=O` [Amrinone], the “HIA(Human Intestinal Absorption)” value was 0.93. As for `CC(C)(Oc1ccc(CCNC(=O)c2ccc(Cl)cc2)cc1)C(=O)O` [Bezafibrate], the “HIA(Human Intestinal Absorption)” value was 1. As to `CN(C)CCC=C1c2ccccc2CCc2ccccc21` [Amitriptyline], the “HIA(Human Intestinal Absorption)” value is listed as 0.95. In the case of `CC[C@H]1OC(=O)[C@H](C)[C@@H](O[C@H]2C[C@@](C)(OC)[C@@H](O)[C@H](C)O2)[C@H](C)[C@@H](O[C@@H]2O[C@H](C)C[C@H](N(C)C)[C@H]2O)[C@](C)(O)C[C@@H](C)C(=O)[C@H](C)[C@@H](O)[C@]1(C)O` [Erythromycin], the “HIA(Human Intestinal Absorption)” value is listed as 0.35.

In the case of `CC(C)N(CCC(C(N)=O)(c1ccccc1)c1ccccn1)C(C)C` (centres unmarked) [Disopyramide], the “HIA(Human Intestinal Absorption)” value was 0.95. `CCC#CC[C@H](C)[C@H](O)C#C[C@@H]1[C@H]2C/C(=C/COCC(=O)O)C[C@H]2C[C@H]1O` [Cicaprost]: the “HIA(Human Intestinal Absorption)” value is on record as 1.

As for `O=C1c2ccccc2C(=O)C1c1ccccc1` [Phenindione], the “HIA(Human Intestinal Absorption)” value is 1. With `O=C(O)c1cccnc1` [Nicotinic_acid], the “HIA(Human Intestinal Absorption)” value is reported as 0.88. With `CC1=C(C(=O)O)N2C(=O)[C@@H](NC(=O)[C@H](N)c3ccc(O)cc3)[C@H]2SC1` [Cefadroxil], the “HIA(Human Intestinal Absorption)” value was 1.

As to `CNC(=C[N+](=O)[O-])NCCSCc1ccc(CN(C)C)o1` [Ranitidine], the “HIA(Human Intestinal Absorption)” value is given as 0.5. For the compound `CC(O)(CS(=O)(=O)c1ccc(F)cc1)C(=O)Nc1ccc(C#N)c(C(F)(F)F)c1` (centres unmarked) [Bicalutamide], the “HIA(Human Intestinal Absorption)” value is recorded as 0.9. With `CC(C[N+](C)(C)C)OC(N)=O` (centres unmarked) [Bethanechol], the “HIA(Human Intestinal Absorption)” value was 0.05. `CCC1(c2ccccc2)C(=O)NCNC1=O` [Primidone]: the “HIA(Human Intestinal Absorption)” value is recorded as 0.75. Consider `CC(C)(C)NC[C@H](O)COc1cccc2c1CCCC2=O` [Levobunolol], for which the “HIA(Human Intestinal Absorption)” value is 1.

Turning to `NCC[C@H](O)C(=O)N[C@@H]1C[C@H](N)[C@@H](O[C@H]2O[C@H](CN)[C@@H](O)[C@H](O)[C@H]2O)[C@H](O)[C@H]1O[C@H]1O[C@H](CO)[C@@H](O)[C@H](N)[C@H]1O` [Amikacin], the “HIA(Human Intestinal Absorption)” value is recorded as 0.01. On to `O=C(O)Cc1ccccc1Oc1ccc(Cl)cc1Cl` [Fenclofenac], for which the “HIA(Human Intestinal Absorption)” value is 1.

As to `C[n+]1ccccc1/C=N/O` [Pralidoxime], the “HIA(Human Intestinal Absorption)” value was 0.3. Turning to `CNS(=O)(=O)Cc1ccc2[nH]cc(CCN(C)C)c2c1` [Sumatriptan], the “HIA(Human Intestinal Absorption)” value is 0.57.

Turning to `OC[C@H]1O[C@@H](O[C@@H]2[C@@H](CO)OC(O)(CO)[C@H]2O)[C@H](O)[C@@H](O)[C@H]1O` (mixture of isomers) [Lactulose], the “HIA(Human Intestinal Absorption)” value is reported as 0.01. Take `CCCCCC(=O)O[C@]1(C(C)=O)CC[C@H]2[C@@H]3CCC4=CC(=O)CC[C@]4(C)[C@H]3CC[C@@]21C` [Hydroxyprogesterone_caproate]: the “HIA(Human Intestinal Absorption)” value is 0.9. In the case of `O=C1NC(=O)C(c2ccccc2)(c2ccccc2)N1` [Phenytoin], the “HIA(Human Intestinal Absorption)” value was 0.9.
